Test results reported in the kinase profiling compilation of Christmann-Franck et al. (2016).

Columns and labels:
Test in all cases: KINOMEscan competition binding
Conditions in all cases: compound 10.0 µM
RAF1 (human) = RAF1 (human) (UniProt P04049)
MAP2K3 (human) = MAP2K3 (human) (UniProt P46734)
FGR (human) = FGR (human) (UniProt P09769)
WEE1 (human) = WEE1 (human) (UniProt P30291)
RPS6KA3 KD1 (human) = RPS6KA3 KD1 (human) (UniProt P51812)
MAPK9 (human) = MAPK9 (human) (UniProt P45984)
CDK19 (human) = CDK19 (human) (UniProt Q9BWU1)
MET (human) = MET (human) (UniProt P08581)
MET (human), sequence (P08581 whole entry, looked up): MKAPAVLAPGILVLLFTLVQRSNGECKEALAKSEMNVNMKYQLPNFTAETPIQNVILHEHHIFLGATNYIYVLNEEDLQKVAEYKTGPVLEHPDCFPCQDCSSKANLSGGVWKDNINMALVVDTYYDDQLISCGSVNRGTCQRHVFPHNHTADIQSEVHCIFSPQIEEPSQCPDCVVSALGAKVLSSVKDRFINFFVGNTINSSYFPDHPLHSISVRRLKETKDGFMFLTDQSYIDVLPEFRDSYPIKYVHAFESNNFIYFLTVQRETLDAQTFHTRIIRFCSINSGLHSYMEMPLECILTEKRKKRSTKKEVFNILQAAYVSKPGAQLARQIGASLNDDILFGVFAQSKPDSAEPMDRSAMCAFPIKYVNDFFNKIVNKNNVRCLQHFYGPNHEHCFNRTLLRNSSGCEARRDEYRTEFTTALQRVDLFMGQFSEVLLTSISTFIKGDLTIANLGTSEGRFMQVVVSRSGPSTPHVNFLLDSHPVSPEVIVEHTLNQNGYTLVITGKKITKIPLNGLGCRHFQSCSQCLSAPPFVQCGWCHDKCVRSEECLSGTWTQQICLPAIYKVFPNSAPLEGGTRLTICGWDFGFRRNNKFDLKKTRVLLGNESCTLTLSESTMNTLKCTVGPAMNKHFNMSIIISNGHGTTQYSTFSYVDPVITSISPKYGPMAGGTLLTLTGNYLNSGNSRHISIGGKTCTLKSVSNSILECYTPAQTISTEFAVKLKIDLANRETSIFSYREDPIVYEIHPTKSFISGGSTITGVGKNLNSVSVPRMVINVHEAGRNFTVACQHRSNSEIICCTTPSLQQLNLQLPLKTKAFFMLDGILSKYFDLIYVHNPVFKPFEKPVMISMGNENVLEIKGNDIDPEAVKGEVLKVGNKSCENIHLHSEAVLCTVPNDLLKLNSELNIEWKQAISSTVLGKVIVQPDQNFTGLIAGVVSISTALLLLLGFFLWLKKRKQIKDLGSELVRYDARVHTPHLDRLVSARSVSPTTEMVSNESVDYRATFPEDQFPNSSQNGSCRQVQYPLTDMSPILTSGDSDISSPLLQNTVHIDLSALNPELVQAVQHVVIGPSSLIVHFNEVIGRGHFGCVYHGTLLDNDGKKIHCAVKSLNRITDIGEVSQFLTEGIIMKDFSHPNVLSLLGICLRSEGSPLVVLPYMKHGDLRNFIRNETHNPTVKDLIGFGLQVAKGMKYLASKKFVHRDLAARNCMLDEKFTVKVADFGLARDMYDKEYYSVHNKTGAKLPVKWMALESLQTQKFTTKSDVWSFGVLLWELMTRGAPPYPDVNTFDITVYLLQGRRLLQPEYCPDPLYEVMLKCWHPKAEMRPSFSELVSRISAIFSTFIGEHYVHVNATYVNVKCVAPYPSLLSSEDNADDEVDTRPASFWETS

LCK (human) = LCK (human) (UniProt P06239)
ROCK2 (human) = ROCK2 (human) (UniProt O75116)
PDGFRA (human) = PDGFRA (human) (UniProt P16234)
PDGFRA (human), sequence (P16234 whole entry, looked up): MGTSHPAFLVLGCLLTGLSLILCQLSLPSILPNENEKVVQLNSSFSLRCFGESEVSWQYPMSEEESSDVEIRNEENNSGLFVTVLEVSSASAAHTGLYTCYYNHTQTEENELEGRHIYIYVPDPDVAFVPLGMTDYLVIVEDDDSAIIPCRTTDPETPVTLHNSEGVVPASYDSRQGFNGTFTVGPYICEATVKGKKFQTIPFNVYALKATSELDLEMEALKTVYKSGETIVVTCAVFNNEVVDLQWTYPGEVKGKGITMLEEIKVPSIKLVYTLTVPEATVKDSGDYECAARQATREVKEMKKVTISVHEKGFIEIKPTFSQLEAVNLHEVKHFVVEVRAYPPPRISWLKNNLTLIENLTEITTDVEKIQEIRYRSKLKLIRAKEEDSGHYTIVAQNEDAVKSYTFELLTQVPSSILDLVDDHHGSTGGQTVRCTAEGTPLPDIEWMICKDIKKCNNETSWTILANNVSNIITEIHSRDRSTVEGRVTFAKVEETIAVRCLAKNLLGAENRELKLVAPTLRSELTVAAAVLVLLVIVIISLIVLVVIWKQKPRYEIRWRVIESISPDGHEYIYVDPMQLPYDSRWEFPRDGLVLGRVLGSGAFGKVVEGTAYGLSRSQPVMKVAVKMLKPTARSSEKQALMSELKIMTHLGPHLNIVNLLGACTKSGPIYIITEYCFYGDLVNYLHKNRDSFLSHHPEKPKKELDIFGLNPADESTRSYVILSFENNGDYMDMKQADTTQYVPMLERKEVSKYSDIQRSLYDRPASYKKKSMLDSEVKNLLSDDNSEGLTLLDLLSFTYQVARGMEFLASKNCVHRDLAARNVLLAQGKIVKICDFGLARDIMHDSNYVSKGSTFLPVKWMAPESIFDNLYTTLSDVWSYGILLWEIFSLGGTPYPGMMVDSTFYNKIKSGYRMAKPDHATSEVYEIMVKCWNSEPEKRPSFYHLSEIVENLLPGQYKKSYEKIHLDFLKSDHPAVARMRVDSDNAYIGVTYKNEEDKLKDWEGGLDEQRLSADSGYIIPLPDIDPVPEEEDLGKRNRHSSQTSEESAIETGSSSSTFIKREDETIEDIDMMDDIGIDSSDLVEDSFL

STK38L (human) = STK38L (human) (UniProt Q9Y2H1)
CHEK2 (human) = CHEK2 (human) (UniProt O96017)
TGFBR2 (human) = TGFBR2 (human) (UniProt P37173)
RPS6KA5 KD2 (human) = RPS6KA5 KD2 (human) (UniProt O75582)
MYLK4 (human) = MYLK4 (human) (UniProt Q86YV6)
SRPK3 (human) = SRPK3 (human) (UniProt Q9UPE1)
CLK2 (human) = CLK2 (human) (UniProt P49760)
SRMS (human) = SRMS (human) (UniProt Q9H3Y6)
SRMS (human), sequence (Q9H3Y6 whole entry, looked up): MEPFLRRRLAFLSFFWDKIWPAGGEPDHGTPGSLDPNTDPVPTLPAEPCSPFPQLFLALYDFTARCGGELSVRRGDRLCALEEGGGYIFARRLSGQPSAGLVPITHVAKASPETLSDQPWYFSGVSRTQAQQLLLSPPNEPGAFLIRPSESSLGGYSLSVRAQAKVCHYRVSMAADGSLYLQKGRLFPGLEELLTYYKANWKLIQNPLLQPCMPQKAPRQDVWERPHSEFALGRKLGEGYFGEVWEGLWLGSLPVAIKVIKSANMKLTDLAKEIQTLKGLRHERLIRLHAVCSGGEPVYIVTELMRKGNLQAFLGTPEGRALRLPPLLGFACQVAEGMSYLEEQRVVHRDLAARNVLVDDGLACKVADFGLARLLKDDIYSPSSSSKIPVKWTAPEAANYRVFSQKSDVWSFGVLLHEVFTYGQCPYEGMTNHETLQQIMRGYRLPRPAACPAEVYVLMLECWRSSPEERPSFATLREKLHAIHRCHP

STK25 (human) = STK25 (human) (UniProt O00506)
[1] = tested on: KIT (human), P10721 [V559D/V654A]
RIPK2 (human) = RIPK2 (human) (UniProt O43353)
[2] = tested on: RET (human), P07949 [V804M]
CDK8 (human) = CDK8 (human) (UniProt P49336)
PDPK1 (human) = PDPK1 (human) (UniProt O15530)
PKN2 (human) = PKN2 (human) (UniProt Q16513)
STK3 (human) = STK3 (human) (UniProt Q13188)
SRPK2 (human) = SRPK2 (human) (UniProt P78362)
ULK1 (human) = ULK1 (human) (UniProt O75385)
ULK1 (human), sequence (O75385 whole entry, looked up): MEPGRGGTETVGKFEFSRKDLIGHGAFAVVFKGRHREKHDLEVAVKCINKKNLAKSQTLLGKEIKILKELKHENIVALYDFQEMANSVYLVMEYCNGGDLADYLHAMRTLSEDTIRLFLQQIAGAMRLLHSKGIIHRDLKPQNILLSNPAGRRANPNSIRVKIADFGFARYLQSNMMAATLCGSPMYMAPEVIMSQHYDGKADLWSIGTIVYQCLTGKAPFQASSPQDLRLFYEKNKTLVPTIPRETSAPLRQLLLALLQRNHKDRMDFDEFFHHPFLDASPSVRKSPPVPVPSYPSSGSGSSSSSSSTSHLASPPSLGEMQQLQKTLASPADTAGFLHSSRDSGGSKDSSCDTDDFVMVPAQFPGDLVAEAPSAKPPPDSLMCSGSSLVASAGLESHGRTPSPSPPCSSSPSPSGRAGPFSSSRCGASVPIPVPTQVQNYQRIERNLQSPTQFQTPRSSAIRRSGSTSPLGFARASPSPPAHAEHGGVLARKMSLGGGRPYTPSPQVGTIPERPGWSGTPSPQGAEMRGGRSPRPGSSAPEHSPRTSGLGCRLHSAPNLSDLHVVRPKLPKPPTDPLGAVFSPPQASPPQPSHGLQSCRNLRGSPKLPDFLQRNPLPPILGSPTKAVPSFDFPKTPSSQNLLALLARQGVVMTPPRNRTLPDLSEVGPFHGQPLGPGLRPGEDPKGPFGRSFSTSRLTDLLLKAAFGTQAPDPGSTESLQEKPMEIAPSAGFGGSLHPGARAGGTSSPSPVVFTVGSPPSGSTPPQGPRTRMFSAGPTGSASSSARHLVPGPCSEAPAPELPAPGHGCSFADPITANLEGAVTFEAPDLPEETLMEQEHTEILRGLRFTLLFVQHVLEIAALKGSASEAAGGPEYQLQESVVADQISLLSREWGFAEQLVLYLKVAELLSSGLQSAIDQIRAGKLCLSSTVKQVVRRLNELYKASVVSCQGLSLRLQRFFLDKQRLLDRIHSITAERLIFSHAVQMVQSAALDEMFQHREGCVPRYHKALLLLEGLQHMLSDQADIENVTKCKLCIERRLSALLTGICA

Measured: kinase still bound, per cent of control

RAF1 (human), sequence (P04049 whole entry, looked up): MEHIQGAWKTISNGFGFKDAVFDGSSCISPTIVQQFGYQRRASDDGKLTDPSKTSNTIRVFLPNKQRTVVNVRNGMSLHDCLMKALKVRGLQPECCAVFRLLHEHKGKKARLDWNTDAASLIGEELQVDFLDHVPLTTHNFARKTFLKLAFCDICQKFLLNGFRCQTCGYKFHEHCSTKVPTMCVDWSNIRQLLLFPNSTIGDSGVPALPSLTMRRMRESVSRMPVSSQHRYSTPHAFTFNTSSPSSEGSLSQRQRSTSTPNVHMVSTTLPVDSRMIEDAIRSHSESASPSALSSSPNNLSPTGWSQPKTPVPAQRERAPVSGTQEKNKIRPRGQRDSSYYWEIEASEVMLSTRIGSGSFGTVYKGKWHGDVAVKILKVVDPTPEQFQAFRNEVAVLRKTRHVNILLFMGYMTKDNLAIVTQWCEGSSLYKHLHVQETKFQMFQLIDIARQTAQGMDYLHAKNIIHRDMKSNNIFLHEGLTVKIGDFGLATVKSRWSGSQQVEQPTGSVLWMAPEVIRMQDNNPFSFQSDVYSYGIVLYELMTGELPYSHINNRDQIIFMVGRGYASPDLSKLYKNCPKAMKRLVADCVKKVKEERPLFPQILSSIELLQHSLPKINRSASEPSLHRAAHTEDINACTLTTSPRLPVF
MAPK9 (human), sequence (P45984 whole entry, looked up): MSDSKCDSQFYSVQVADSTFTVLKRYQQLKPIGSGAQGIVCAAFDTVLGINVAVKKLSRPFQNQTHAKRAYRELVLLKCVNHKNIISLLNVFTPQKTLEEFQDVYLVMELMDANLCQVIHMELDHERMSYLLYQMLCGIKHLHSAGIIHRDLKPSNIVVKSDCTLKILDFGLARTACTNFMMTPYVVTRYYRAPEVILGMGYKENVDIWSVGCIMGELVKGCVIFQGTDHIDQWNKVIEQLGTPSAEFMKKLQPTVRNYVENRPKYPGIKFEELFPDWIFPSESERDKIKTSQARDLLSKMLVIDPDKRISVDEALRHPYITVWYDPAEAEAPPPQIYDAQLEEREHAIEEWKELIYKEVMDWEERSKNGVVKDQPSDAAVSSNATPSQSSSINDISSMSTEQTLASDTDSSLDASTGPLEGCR

C=CC(=O)Nc1ccc(CN(C(=O)Nc2c(Cl)c(OC)cc(OC)c2Cl)c2cc(Nc3ccc(N4CCN(C)CC4)cc3)ncn2)cc1
0.2%: LCK (human)
7%: FGR (human)
2.2%: PDGFRA (human)
100%: all other assays above

CCN(CC)CCCCNc1ncc2cc(-c3cc(OC)cc(OC)c3)c(NC(=O)NC(C)(C)C)nc2n1
22%: LCK (human)
9.4%: STK25 (human)
not listed: ROCK2 (human) | CHEK2 (human) | SRPK3 (human) | [2] | ULK1 (human)
100%: all other assays above

Cc1n[nH]c2ccc(-c3cncc(OC[C@@H](N)Cc4c[nH]c5ccccc45)c3)cc12
7.1%: MAP2K3 (human)
0.5%: CDK19 (human)
22%: SRPK2 (human) | ULK1 (human)
10%: [2]
0.05%: CLK2 (human)
2.4%: PKN2 (human)
0.95%: SRPK3 (human)
17%: RPS6KA5 KD2 (human)
9.6%: CDK8 (human)
0.35%: STK3 (human)
3%: MYLK4 (human)
0%: ROCK2 (human)
not listed: RPS6KA3 KD1 (human)
100%: all other assays above

CNC(=O)c1ccc(Nc2cc(Nc3ccccc3S(=O)(=O)C(C)C)c3cc[nH]c3n2)nc1
25%: RPS6KA3 KD1 (human)
4.7%: CLK2 (human)
15%: STK38L (human)
0.95%: ROCK2 (human)
24%: SRPK2 (human)
5.4%: PKN2 (human)
1.2%: [2]
0.2%: STK3 (human)
1%: MET (human)
0.3%: LCK (human)
7.2%: ULK1 (human)
10%: MAP2K3 (human)
5%: FGR (human)
12%: SRPK3 (human)
100%: all other assays above
